# Measurements from ChEMBL document CHEMBL3400103, “Synthesis and biological evaluation of novel HIV-1 protease inhibitors using tertiary amine as P2-ligands” (Bioorg Med Chem Lett, 2015).
# Target: Protease (Human immunodeficiency virus 1, UniProt Q9YQ12)
# Test: Inhibition of HIV1 protease expressed in Escherichia coli incubated for 20 to 30 mins at room temperature using (Arg-Glu(EDANS)-Ser-Gln-Asn-Tyr-Pro-Ile-Val-Gln-Lys(DABCYL)-Arg) substrate by FRET method
# Protease, sequence (Q9YQ12 whole entry): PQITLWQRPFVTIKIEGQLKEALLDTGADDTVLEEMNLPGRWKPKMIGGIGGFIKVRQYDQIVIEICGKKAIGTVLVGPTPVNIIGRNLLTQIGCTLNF
row,SMILES,IC50
1,Cc1cccc(C)c1N(CC(=O)N[C@@H](Cc1ccccc1)[C@@H](O)CN(CC(C)C)S(=O)(=O)c1ccc(N)cc1)CC(=O)N(C)C,490 nM
2,COc1ccc(N(CC(=O)N[C@@H](Cc2ccccc2)[C@H](O)CN(CC(C)C)S(=O)(=O)c2ccc([N+](=O)[O-])cc2)CC(=O)N(C)C)cc1,210 nM
3,COc1ccc(S(=O)(=O)N(CC(C)C)C[C@@H](O)[C@H](Cc2ccccc2)NC(=O)CN(CC(=O)N(C)C)c2c(C)cccc2C)cc1,180 nM
4,Cc1cccc(C)c1N(CC(=O)N[C@@H](Cc1ccccc1)[C@H](O)CN(CC(C)C)S(=O)(=O)c1ccc([N+](=O)[O-])cc1)CC(=O)N(C)C,290 nM
5,Cc1c(O)cccc1N(CC(=O)N[C@@H](Cc1ccccc1)[C@@H](O)CN(CC(C)C)S(=O)(=O)c1ccc(CO)cc1)CC(=O)N(C)C,> 20000 nM
6,COc1ccc(N(CC(=O)N[C@@H](Cc2ccccc2)[C@@H](O)CN(CC(C)C)S(=O)(=O)c2ccc(N)cc2)CC(=O)N(C)C)cc1,6960 nM
7,COc1ccc(N(CC(=O)N[C@@H](Cc2ccccc2)[C@H](O)CN(CC(C)C)S(=O)(=O)c2ccc(CO)cc2)CC(=O)N(C)C)cc1,370 nM
8,Cc1cccc(C)c1N(CC(=O)N[C@@H](Cc1ccccc1)[C@@H](O)CN(CC(C)C)S(=O)(=O)c1ccc([N+](=O)[O-])cc1)CC(=O)N(C)C,5880 nM
9,COc1ccc(N(CC(=O)N[C@@H](Cc2ccccc2)[C@H](O)CN(CC(C)C)S(=O)(=O)c2ccc(OC)cc2)CC(=O)N2CCOCC2)cc1,290 nM
10,COc1ccc(N(CC(=O)N[C@@H](Cc2ccccc2)[C@@H](O)CN(CC(C)C)S(=O)(=O)c2ccc(OC)cc2)CC(=O)N2CCOCC2)cc1,> 20000 nM
11,COc1ccc(N(CC(=O)N[C@@H](Cc2ccccc2)[C@H](O)CN(CC(C)C)S(=O)(=O)c2ccc(OC)cc2)CC(=O)N(C)C)cc1,220 nM
12,Cc1c(O)cccc1N(CC(=O)N[C@@H](Cc1ccccc1)[C@H](O)CN(CC(C)C)S(=O)(=O)c1ccc(N)cc1)CC(=O)N(C)C,590 nM
13,COc1ccc(N(CC(=O)N[C@@H](Cc2ccccc2)[C@@H](O)CN(CC(C)C)S(=O)(=O)c2ccc([N+](=O)[O-])cc2)CC(=O)N(C)C)cc1,> 20000 nM
14,Cc1cccc(C)c1N(CC(=O)N[C@@H](Cc1ccccc1)[C@@H](O)CN(CC(C)C)S(=O)(=O)c1ccc(CO)cc1)CC(=O)N(C)C,17300 nM
15,COc1ccc(S(=O)(=O)N(CC(C)C)C[C@H](O)[C@H](Cc2ccccc2)NC(=O)CN(CC(=O)N(C)C)c2cccc(O)c2C)cc1,5780 nM
16,COc1ccc(N(CC(=O)N[C@@H](Cc2ccccc2)[C@@H](O)CN(CC(C)C)S(=O)(=O)c2ccc(OC)cc2)CC(=O)N(C)C)cc1,> 20000 nM
17,Cc1c(O)cccc1N(CC(=O)N[C@@H](Cc1ccccc1)[C@H](O)CN(CC(C)C)S(=O)(=O)c1ccc(CO)cc1)CC(=O)N(C)C,150 nM
18,Cc1c(O)cccc1N(CC(=O)N[C@@H](Cc1ccccc1)[C@@H](O)CN(CC(C)C)S(=O)(=O)c1ccc(N)cc1)CC(=O)N(C)C,5920 nM
19,Cc1cccc(C)c1N(CC(=O)N[C@@H](Cc1ccccc1)[C@H](O)CN(CC(C)C)S(=O)(=O)c1ccc(CO)cc1)CC(=O)N(C)C,290 nM
20,COc1ccc(S(=O)(=O)N(CC(C)C)C[C@@H](O)[C@H](Cc2ccccc2)NC(=O)CN(CC(=O)N(C)C)c2cccc(O)c2C)cc1,540 nM
21,COc1ccc(N(CC(=O)N[C@@H](Cc2ccccc2)[C@@H](O)CN(CC(C)C)S(=O)(=O)c2ccc(CO)cc2)CC(=O)N2CCOCC2)cc1,> 20000 nM
22,COc1ccc(N(CC(=O)N[C@@H](Cc2ccccc2)[C@H](O)CN(CC(C)C)S(=O)(=O)c2ccc(N)cc2)CC(=O)N(C)C)cc1,140 nM
23,COc1ccc(N(CC(=O)N[C@@H](Cc2ccccc2)[C@H](O)CN(CC(C)C)S(=O)(=O)c2ccc(CO)cc2)CC(=O)N2CCOCC2)cc1,890 nM
24,COc1ccc(S(=O)(=O)N(CC(C)C)C[C@H](O)[C@H](Cc2ccccc2)NC(=O)CN(CC(=O)N(C)C)c2c(C)cccc2C)cc1,> 20000 nM
25,Cc1cccc(C)c1N(CC(=O)N[C@@H](Cc1ccccc1)[C@H](O)CN(CC(C)C)S(=O)(=O)c1ccc(N)cc1)CC(=O)N(C)C,1360 nM
26,COc1ccc(N(CC(=O)N[C@@H](Cc2ccccc2)[C@@H](O)CN(CC(C)C)S(=O)(=O)c2ccc(CO)cc2)CC(=O)N(C)C)cc1,5340 nM

# The remaining lines, values ahead:
row,IC50,SMILES
1,73 nM,Cc1cccc(C)c1N(CC(=O)N[C@@H](Cc1ccccc1)[C@H](O)CN(CC(C)C)S(=O)(=O)c1ccc([N+](=O)[O-])cc1)CC(=O)N1CCOCC1
2,6670 nM,Cc1c(O)cccc1N(CC(=O)N[C@@H](Cc1ccccc1)[C@H](O)CN(CC(C)C)S(=O)(=O)c1ccc([N+](=O)[O-])cc1)CC(=O)N1CCOCC1
3,8940 nM,Cc1cccc(C)c1N(CC(=O)N[C@@H](Cc1ccccc1)[C@@H](O)CN(CC(C)C)S(=O)(=O)c1ccc(CO)cc1)CC(=O)N1CCOCC1
4,1020 nM,COc1ccc(N(CC(=O)N[C@@H](Cc2ccccc2)[C@H](O)CN(CC(C)C)S(=O)(=O)c2ccc([N+](=O)[O-])cc2)CC(=O)N2CCOCC2)cc1
5,15 nM,COc1ccc(S(=O)(=O)N(CC(C)C)C[C@@H](O)[C@H](Cc2ccccc2)NC(=O)CN(CC(=O)N2CCOCC2)c2c(C)cccc2C)cc1
6,1380 nM,COc1ccc(S(=O)(=O)N(CC(C)C)C[C@@H](O)[C@H](Cc2ccccc2)NC(=O)CN(CC(=O)N2CCOCC2)c2cccc(O)c2C)cc1
7,64 nM,Cc1cccc(C)c1N(CC(=O)N[C@@H](Cc1ccccc1)[C@H](O)CN(CC(C)C)S(=O)(=O)c1ccc(N)cc1)CC(=O)N1CCOCC1
8,8650 nM,COc1ccc(S(=O)(=O)N(CC(C)C)C[C@H](O)[C@H](Cc2ccccc2)NC(=O)CN(CC(=O)N2CCOCC2)c2c(C)cccc2C)cc1
9,610 nM,Cc1c(O)cccc1N(CC(=O)N[C@@H](Cc1ccccc1)[C@H](O)CN(CC(C)C)S(=O)(=O)c1ccc([N+](=O)[O-])cc1)CC(=O)N(C)C
10,2590 nM,Cc1cccc(C)c1N(CC(=O)N[C@@H](Cc1ccccc1)[C@@H](O)CN(CC(C)C)S(=O)(=O)c1ccc(N)cc1)CC(=O)N1CCOCC1
11,6120 nM,Cc1c(O)cccc1N(CC(=O)N[C@@H](Cc1ccccc1)[C@@H](O)CN(CC(C)C)S(=O)(=O)c1ccc(CO)cc1)CC(=O)N1CCOCC1
12,> 20000 nM,Cc1c(O)cccc1N(CC(=O)N[C@@H](Cc1ccccc1)[C@@H](O)CN(CC(C)C)S(=O)(=O)c1ccc([N+](=O)[O-])cc1)CC(=O)N1CCOCC1
13,2730 nM,Cc1c(O)cccc1N(CC(=O)N[C@@H](Cc1ccccc1)[C@H](O)CN(CC(C)C)S(=O)(=O)c1ccc(N)cc1)CC(=O)N1CCOCC1
14,73 nM,Cc1cccc(C)c1N(CC(=O)N[C@@H](Cc1ccccc1)[C@H](O)CN(CC(C)C)S(=O)(=O)c1ccc(CO)cc1)CC(=O)N1CCOCC1
15,7410 nM,Cc1c(O)cccc1N(CC(=O)N[C@@H](Cc1ccccc1)[C@@H](O)CN(CC(C)C)S(=O)(=O)c1ccc([N+](=O)[O-])cc1)CC(=O)N(C)C
16,19200 nM,COc1ccc(N(CC(=O)N[C@@H](Cc2ccccc2)[C@@H](O)CN(CC(C)C)S(=O)(=O)c2ccc([N+](=O)[O-])cc2)CC(=O)N2CCOCC2)cc1
17,5870 nM,Cc1cccc(C)c1N(CC(=O)N[C@@H](Cc1ccccc1)[C@@H](O)CN(CC(C)C)S(=O)(=O)c1ccc([N+](=O)[O-])cc1)CC(=O)N1CCOCC1
18,1360 nM,COc1ccc(N(CC(=O)N[C@@H](Cc2ccccc2)[C@H](O)CN(CC(C)C)S(=O)(=O)c2ccc(N)cc2)CC(=O)N2CCOCC2)cc1
19,> 20000 nM,COc1ccc(S(=O)(=O)N(CC(C)C)C[C@H](O)[C@H](Cc2ccccc2)NC(=O)CN(CC(=O)N2CCOCC2)c2cccc(O)c2C)cc1
20,16100 nM,Cc1c(O)cccc1N(CC(=O)N[C@@H](Cc1ccccc1)[C@@H](O)CN(CC(C)C)S(=O)(=O)c1ccc(N)cc1)CC(=O)N1CCOCC1
21,1210 nM,Cc1c(O)cccc1N(CC(=O)N[C@@H](Cc1ccccc1)[C@H](O)CN(CC(C)C)S(=O)(=O)c1ccc(CO)cc1)CC(=O)N1CCOCC1
22,6810 nM,COc1ccc(N(CC(=O)N[C@@H](Cc2ccccc2)[C@@H](O)CN(CC(C)C)S(=O)(=O)c2ccc(N)cc2)CC(=O)N2CCOCC2)cc1
